According to US8771953B2, “Evaluation of the potential risk of drug induced mood disturbance and suicide: use of a dedicated platform” (Biocortech, priority 2008, dated 2014):
Like-named read-outs stand apart in the source and are kept apart here. Marks after values point to notes of the source that are not given here.

Tests used:
[1] = tested on: 5-HT2cR mRNA; test: Editing profile of 5-HT2cR mRNA isoforms by CE-SSCP (nested PCR) in SH-SY5Y cells; enzyme activity indexes worked out from the profile; assay type: cell-based, human; conditions: for activation at 10 µM: Homo sapiens; for alteration of 5-HT2cR mRNA editing compared with that observed after INFα treatment (component analysis, FIG. 4): SH-SY5Y cells, 48 hours, 10 μM
[2] = tested on: ADAR1a mRNA; test: Q-PCR of ADAR1a mRNA expression in SH-SY5Y cells; assay type: cell-based; conditions: Homo sapiens, 10 micromolar, 24 hours, read-out: QPCR: RNA expresion (% of variation) ADAR1a
Excerpt: ADAR1a RNA Expression in SH-SY5Y cells (Q-PCR, Applied TaqMan probes ref: Hs 01020780_m1).
(§1) The SH-SY5Y Human neuroblastoma cell line was purchased from ECACC (EC94030304 from the European Collection of Cell Cultures (ECACC)). The cell line SH-SY5Y is a thrice-cloned neuroblastoma, originally from SK-N-SH and first reported in 1978. A neuroblast-like subclone of SK-N-SH, named SH-SY, was subcloned as SH-SY5, which was subcloned again as SH-SY5Y (Biedler J L et al. Cancer Res. 1978; 38:3751-7). Cells were cultured in high glucose D-MEM medium (Sigma, ref D6546) supplemented with 10% dialysed FCS (PAA, ref. A15-507, lot A50708-0050), 2 mM Glutamine (Sigma, G7513) and a 1× mix of Antibiotic-Antimycotic Stabilized (Sigma, ref. A5955) at 37° C. under a humidified atmosphere of 5% CO2. The day preceeding drug or hIFNα treatment, SH-SY5Y cells were plated in 6-well plates at a density of 10^6 cells/well. One 6-well plate was used per experimental condition (concentration or treatment duration). The day after plating, culture medium was removed and cells were incubated for 24 hours with a 10 μM solution of the compound to be tested molecules or a 1000 IU/ml solution of hIFNα (PBL biomedical laboratories). For hIFNα dose-response experiment cells were incubated with 1, 10, 100, and 1000 IU/ml of hIFNα solutions. For hIFNα time-course experiment cells were treated for 24, 48, or 72 hours with a 1000 IU/ml solution of hIFNα. After the different treatments, cells were directly lysed in RLT lysis buffer and total RNA purified according to manufacturer's protocol (Qiagen, RNeasy Plus mini kit, ref. 74134). Total RNA was then reverse transcribed with Thermoscript RT-PCR system Plus Taq (Invitrogen, 11146-032) and the resulting cDNA used for CE-SSCP and quantitative real-time PCR.
(§2) In order to quantify levels of 5-HT2CR, ADAR1 and ADAR2 mRNA expression in SH-SY5Y cells or in prefrontal cortex, total blood and skin of Balb/cJ mice, first-strand cDNA was synthesized by reverse transcription and subjected to TaqMan quantitative real-time PCR analysis (Applied Biosystems). All probes and primers used for the quantitative PCRs were from Applied Bio systems (Gene Expression Assays, Assay-On-Demand) (see Table 1, Applied Biosystems primers and probes references): […]
(§3) Human GAPDH (product no. 4326317E; Applied Biosystems) or mouse GAPDH (product no. 4352339E; Applied Biosystems) were included in each multiplex PCR as an internal control. Real-time PCR and subsequent analysis were performed with a 48-well block StepOne RT PCR system (Applied Biosystems). Quantification of target gene expression in all samples was normalized to GAPDH expression by the equation Ct (target)−Ct (GAPDH)=ΔCt, where Ct is the threshold cycle number. The mean ΔCt value of samples from untreated mice or cells was determined and used as a reference point for the samples corresponding to treated animals or cells. Differences between untreated and treated animals or cells, including individual variation were calculated by the equation (ΔCt (individual treated samples)−ΔCt (mean of untreated samples)=ΔΔCt). Changes in target gene expression (n-fold) in each sample were calculated by 2^−ΔΔCt, from which the means and standard deviations (SD) were derived.
(§4) The SH-SY5Y Human neuroblastoma cell line was purchased from ECACC. Cells were cultured in high glucose D-MEM medium (Sigma, ref. D6546) supplemented with 10% dialysed FCS (PAA, ref. A15-507, lot A50708-0050), 2 mM Glutamine (Sigma, ref. G7513) and a 1× mix of Antibiotic-Antimycotic Stabilized (Sigma, ref. A5955) at 37° C. under a humidified atmosphere of 5% CO2. The day preceeding hIFNα or drug treatment, SH-SY5Y cells were plated in 6-well plates (Corning, Multiwell Plate, 6 well, Corning CellBIND Surface, ref 3335) at a density of 5; 7 or 9·10^6 cells/well for a 72-, 48- or 24-hour treatment respectively. Six or eight wells of 6-well plates were used per experimental condition (control, concentration or treatment duration).

[3] = tested on: ADAR1b mRNA; test: Q-PCR of ADAR1b mRNA expression in SH-SY5Y cells; assay type: cell-based; conditions: Homo sapiens, 10 micromolar, 24 hours, read-out: QPCR: RNA expresion (% of variation) ADAR1b
Method: as §1, §2, §3, §4

[4] = tested on: ADAR2 mRNA; test: Q-PCR of ADAR2 mRNA expression in SH-SY5Y cells; assay type: cell-based; conditions: Homo sapiens, 10 micromolar, 24 hours, read-out: QPCR: RNA expresion (% of variation) ADAR2
Method: as §1, §2, §3, §4

[5] = SH-SY5Y, 10 micromolar, 24 hours, read-out: ENZYME ACTIVIY INDEX (% of variation) ADAR1
[6] = SH-SY5Y, 10 micromolar, 24 hours, read-out: ENZYME ACTIVIY INDEX (% of variation) ADAR1 + 2
[7] = SH-SY5Y, 10 micromolar, 24 hours, read-out: ENZYME ACTIVIY INDEX (% of variation) ADAR2
[8] = SH-SY5Y, 10 micromolar, 24 hours, read-out: ENZYME ACTIVIY INDEX (% of variation) ADARI
[9] = SH-SY5Y, 10 micromolar, 24 hours, read-out: ENZYME ACTIVIY INDEX (% of variation) ADARII
[10] = SH-SY5Y, 10 micromolar, 24 hours, read-out: ENZYME ACTIVIY INDEX (% of variation) NE
[11] = SH-SY5Y, 24 h, read-out: ENZYME ACTIVIY INDEX (% of variation) ADAR1
[12] = SH-SY5Y, 24 h, read-out: ENZYME ACTIVIY INDEX (% of variation) ADAR1 + 2
[13] = SH-SY5Y, 24 h, read-out: ENZYME ACTIVIY INDEX (% of variation) ADAR2
[14] = SH-SY5Y, 24 h, read-out: ENZYME ACTIVIY INDEX (% of variation) ADARI
[15] = SH-SY5Y, 24 h, read-out: ENZYME ACTIVIY INDEX (% of variation) ADARII
[16] = SH-SY5Y, 24 h, read-out: ENZYME ACTIVIY INDEX (% of variation) NE

Row | Compound | activation at 10 µM [1, 5] [%] | activation at 10 µM [1, 6] [%] | activation at 10 µM [1, 7] [%] | activation at 10 µM [1, 8] [%] | activation at 10 µM [1, 9] [%] | activation at 10 µM [1, 10] [%] | % change in ADAR1a mRNA expression at 10 µM [2] [%] | percent change in mRNA expression at 10 µM [3] [%] | percent change in ADAR2 mRNA expression at 10 µM [4] [%] | activation at 10 µM [1, 11] [%] | activation at 10 µM [1, 12] [%] | activation at 10 µM [1, 13] [%] | activation at 10 µM [1, 14] [%] | activation at 10 µM [1, 15] [%] | activation at 10 µM [1, 16] [%] | ENZYME ACTIVIY INDEX (% of variation) EC ([1]; SH-SY5Y, 10 micromolar, 24 hours) | alteration of 5-HT2cR mRNA editing compared with that observed after INFα treatment (component analysis, FIG. 4) [1]
1 | NC(=O)OCC(COC(N)=O)c1ccccc1 [Felbamate] | 6.3 | -13.9 | -24.6 | 2.4 | -16 | -1.2 | -13 | -1 | 1 |  |  |  |  |  |  |  | 
2 | CNCCCN1c2ccccc2CCc2ccccc21 [Desipramine] |  |  |  |  |  |  | 29 | -38 | -12 | -8.6 | 5.7 | 15.5 | -6.6 | 7.5 | 5.9 |  | 
3 | Cc1cc2c(s1)Nc1ccccc1N=C2N1CCN(C)CC1 [Olanzapine] |  |  |  |  |  |  | -54 | 20 | 92 | -23.2 | 84.9 | 9.2 | -7.6 | 70.5 | 7 |  | 
4 | CCNC(C)Cc1cccc(C(F)(F)F)c1 (stereo not drawn) [Fenfluramine] |  |  |  |  |  |  | 7 | 23 | 27 | 4.2 | -43.3 | 0.7 | -4.8 | -34.8 | 4.5 |  | 
5 | CC(C)C[C@H](CN)CC(=O)O [Pregabalin] |  |  |  |  |  |  | -33 | -43 | -36 | 2.5 | -8.7 | -6.2 | 0.4 | -8.2 | -0.1 |  | 
6 | NS(=O)(=O)Cc1noc2ccccc12 [Zonisamide] | 11.9 | 9.7 | -7.8 | 11.5 | 6.3 | -10.5 | -24 | -19 | -23 |  |  |  |  |  |  |  | 
7 | NC(=O)N1c2ccccc2CC(=O)c2ccccc21 [Oxcarbazepine] | 1.1 | -25.6 | -25.9 | -3.9 | -25.6 | 4.8 | -28 | -18 | -15 |  |  |  |  |  |  | −65.2* % | 
8 | Nc1nnc(-c2cccc(Cl)c2Cl)c(N)n1 [Lamotrigine] | 5.9 | -24.6 | -23 | 0.1 | -24.3 | 0.9 | -26 | -26 | -32 |  |  |  |  |  |  |  | 
9 | O=c1n(CCCN2CCN(c3cccc(Cl)c3)CC2)nc2ccccn12 [Trazodone] | 0 | 89.3 | 28.4 | 12.9 | 77.7 | 13.4 | -60 | -40 | 5 |  |  |  |  |  |  |  | 
10 | C[C@H](NC(=O)C(C)(C)Oc1ccc(C(F)(F)F)cn1)[C@@H](Cc1ccc(Cl)cc1)c1cccc(C#N)c1 [Taranabant] |  |  |  |  |  |  |  |  |  |  |  |  |  |  |  |  | similarly altered
11 | NCC1(CC(=O)O)CCCCC1 [Gabapentin] |  |  |  |  |  |  | -42 | -34 | -21 | 19.2 | -28.5 | -26.7 | 10.1 | -28.1 | -8.3 |  | 
12 | Cc1c(C(=O)NN2CCCCC2)nn(-c2ccc(Cl)cc2Cl)c1-c1ccc(Cl)cc1 [Rimonabant] | 13.3 | 2.4 | -3.7 | 11.3 | 1.2 | -10.4 | -43 | -32 | -7 |  |  |  |  |  |  |  | similarly altered
13 | CN(C)CCCC1(c2ccc(F)cc2)OCc2cc(C#N)ccc21 (stereo not drawn) [Citalopram] | -5.7 | 70.2 | 70.1 | 5.3 | 70.2 | -7.4 | -18 | -2 | 64 |  |  |  |  |  |  |  | 
14 | CC1(C)O[C@@H]2[C@@H](CO[C@@]3(COS(N)(=O)=O)OC(C)(C)O[C@@H]23)O1 [Topiramate] | 14.4 | -19.5 | 11.4 | 8 | -13.5 | -8 | -44 | -46 | -60 |  |  |  |  |  |  |  | 
15 | NC(=O)N1c2ccccc2C=Cc2ccccc21 [Carbamazepine] | -3 | 38.8 | 26 | 3 | 36.4 | -3.8 | 52 | -62 | -42 |  |  |  |  |  |  |  | 
